Each block holds one sequence with its values, some of them ahead of it.
Biological target: T1, MyD88^TIR (Homo sapiens, UniProt Q99836)
T1 construct: MyD88 (residues 148–296); 6xHis; made in house; host or cells: E. coli BL21 (DE3)
Test: T‐Surf phage library (P8 and P3) selection against MyD88^TIR, four rounds, NGS read counts
Assay type: binding
Conditions: for P8_MyD88 Rank (after) / P8_MyD88 Rank (before): P8 library; for P3_MyD88 Rank (after) / P3_MyD88 Rank (before): P3 library; for Population: 4th round of selection against MyD88 TIR, share of NGS reads
Procedure: T‐Surf libraries were screened against the immobilized TIR domains of two major human TLR adaptor proteins, MAL^TIR and MyD88^TIR, allowing cross‐species selection of TIR‐binding motifs with 190 946 TIR‐derived peptides in a single binding assay (Scheme 1). Enriched phage pools from the fourth round of selection were analyzed using NGS after barcoding the peptide‐coding regions of the phage pools.
Phage display screening was performed by coating two wells of a 96‐well plate (Maxisorp, Thermo Fisher Scientific) with 100 µL of 5 µg mL^−1 TIR domains overnight; then, the coated wells were blocked with 200 µL of blocking buffer (0.2% BSA in PBS) and set aside for 1 h at 4 °C with gentle shaking. Next, 100 µL of the phage library was added to the wells and incubated for 1 h at room temperature (RT; 20 – 22 °C) with gentle shaking. The plate was washed four times with PBS containing 0.5% Tween‐20; the bound phages were eluted by adding 100 µL of 100 mM HCl to each well. The elute was neutralized with 10 µL of 1.0 M Tris‐HCl (pH 11.0). E. coli TG1 cells were grown to the log phase (A600 = ≈0.6), and 1 mL of the culture was incubated with 100 µL of the eluted phages for 30 min at 37 °C, with shaking at 200 rpm. Next, 1 µL of M13KO7 helper phages was added, followed by incubation for 45 min at 37 °C, with shaking. Subsequently, the cells were transferred to 25 mL of 2× yeast extract tryptone/carbenicillin/kanamycin medium and incubated overnight at 37 °C with shaking at 200 rpm. The amplified phages were precipitated with 20% PEG‐8000/2.5 M NaCl to be used for the next round of selection.
The naïve T‐Surf libraries in P8 and P3 and the enriched phage pools after four rounds were barcoded for NGS as previously described.^[ [59] ^] Briefly, 5 µL of the phage pool was used as a template for 20 cycles of a 50 µL PCR reaction using […] each of forward and reverse barcoded primers and PrimeSTAR Max DNA Polymerase. The PCR products were purified using Expin Gel SV (GeneAll). The NGS samples were quantified using qPCR, following the qPCR Quantification Protocol Guide (KAPA Library Quantification kits for Illumina Sequencing Platform), and qualified using the TapeStation High Sensitivity D1000 ScreenTape (Agilent Technologies). The indexed libraries were further sequenced by Macrogen (Seoul, Republic of Korea) using the NovaSeq platform (Illumina) with 100 bp paired‐end reads. The reads were demultiplexed by barcodes and filtered for an average Phred quality score of at least 30, followed by trimming the flanking consensus sequences using Cutadapt (version 2.3). Peptide sequence populations were analyzed according to the read counts.

[1] = P8_MyD88: rank by NGS read count after grouping
[2] = P8_MyD88: rank by NGS read count before grouping
[3] = P8_MyD88: rank by count after grouping
[4] = P8_MyD88: rank by count before grouping
[5] = selection against MyD88, rank by count after grouping
[6] = selection against MyD88, rank by count before grouping
[7] = P3_MyD88: rank by count after grouping
[8] = P3_MyD88: rank by count before grouping
[9] = 4R selection against MyD88, rank after grouping
[10] = 4R selection against MyD88, rank before grouping
[11] = P8_MyD88 pool: P8 T-Surf phage library
[12] = selection against MyD88, rank after grouping
[13] = selection against MyD88, rank before grouping
[14] = selection against MyD88 TIR, rank by count after grouping
[15] = selection against MyD88 TIR, rank by count before grouping

T1 sequence (Q99836 148-296): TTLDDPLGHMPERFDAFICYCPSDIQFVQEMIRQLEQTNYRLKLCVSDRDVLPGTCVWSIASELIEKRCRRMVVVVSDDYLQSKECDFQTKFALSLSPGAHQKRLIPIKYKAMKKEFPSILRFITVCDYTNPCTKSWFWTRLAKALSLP

Rank (after) [3]: 461 | Rank (before) [4]: 2817
Sequence: DPQDLDWCYERLVSRC

Rank (after) [7]: 149 | Rank (before) [8]: 3467
Sequence: NQCRNALTAAANLSGC

P3_MyD88 Rank (after) [5]: 712 | P3_MyD88 Rank (before) [6]: 2957
Sequence: SENYVTSPCAVDELVP

Rank (after) [3]: 168 | Rank (before) [4]: 189 | Population [11]: 0.00655%
Sequence: AWTDDPVGQLFFWESL

P8_MyD88 Rank (after) [12]: 553 | P8_MyD88 Rank (before) [13]: 2056
Sequence: YLRADDSWFWEKLLQIA

P3_MyD88 Rank (after) [14]: 242 | P3_MyD88 Rank (before) [15]: 924
Sequence: AVDKETDKIQTAEKC

Population [11]: 0.00925%
Sequence: DPQDLDWFYERLVNLF

Rank (after) [7]: 136 | Rank (before) [8]: 3388
Sequence: NDLVHGWSSKANSLVG

Rank (after) [7]: 188 | Rank (before) [8]: 1704
Sequence: YTALNNSGFNTFRDND

Population (P3_MyD88 pool: P3 T-Surf phage library): 0.00349%
Sequence: SSFREGLWRLLELSEK

Rank (after) [1]: 910 | Rank (before) [2]: 1573
Sequence: WDFGTAGKNPGSAWHH

P8_MyD88 Rank (after) [12]: 574 | P8_MyD88 Rank (before) [13]: 2062
Sequence: YLRADDSWFEEKLLFA

Rank (after) [3]: 472 | Rank (before) [4]: 2901
Sequence: DPQDLLRFYEHLVSLF

P3_MyD88 Rank (after) [12]: 571 | P3_MyD88 Rank (before) [13]: 2323
Sequence: LGTHEISKEMKIFATI

P3_MyD88 Rank (after) [5]: 732 | P3_MyD88 Rank (before) [6]: 2643
Sequence: RTLLENLWASVDISHK

Rank (after) [1]: 922 | Rank (before) [2]: 2287
Sequence: GLSWVRMNGGWACMM

Rank (after) [7]: 478 | Rank (before) [8]: 3124
Sequence: SSFLQKLRRRLELSIV

P8_MyD88 Rank (after) [14]: 219 | P8_MyD88 Rank (before) [15]: 355
Sequence: DSLFWDRLLYSLHVT

Rank (after) [7]: 160 | Rank (before) [8]: 3197
Sequence: SSFREGLWHLLVLSKK

P3_MyD88 Rank (after) [14]: 232 | P3_MyD88 Rank (before) [15]: 2275
Sequence: LVAHELLKKMKIFATI

Continued, sequence first:

Sequence: VQWDELLQILHARELF
Rank (after) [1]: 965 | Rank (before) [2]: 2249

Sequence: LGYHCHDREYFVGIED
P8_MyD88 Rank (after) [5]: 717 | P8_MyD88 Rank (before) [6]: 3311

Sequence: LQNQWELALTKKTKLV
P3_MyD88 Rank (after) [5]: 733 | P3_MyD88 Rank (before) [6]: 2336

Sequence: DPQDRDWIYERLVSLF
Rank (after) [3]: 423 | Rank (before) [4]: 2956

Sequence: DPQDQDRFYERLVSLF
P8_MyD88 Rank (after) [9]: 591 | P8_MyD88 Rank (before) [10]: 2968

Sequence: SENYATSAWALEELVL
P3_MyD88 Rank (after) [14]: 214 | P3_MyD88 Rank (before) [15]: 2961

Sequence: LVAHEISKMLKIFETI
P3_MyD88 Rank (after) [5]: 681 | P3_MyD88 Rank (before) [6]: 2284

Sequence: KNLLNALMSKNIRTFM
P3_MyD88 Rank (after) [9]: 622 | P3_MyD88 Rank (before) [10]: 3789

Sequence: EWIREQLRPALEKAGKL
Rank (after) [7]: 144 | Rank (before) [8]: 649

Sequence: YTALTNRGFLTFRDNA
Rank (after) [7]: 180 | Rank (before) [8]: 1650

Sequence: SELCVVAEGSVSPLDM
P3_MyD88 Rank (after) [9]: 587 | P3_MyD88 Rank (before) [10]: 3010

Sequence: AYILNFIKGNVMFEFL
Rank (after) [3]: 129 | Rank (before) [4]: 140 | Population [11]: 0.0116%

Sequence: TSHLHHAPRPNEIETL
P3_MyD88 Rank (after) [9]: 653 | P3_MyD88 Rank (before) [10]: 3323

Sequence: QYSDTLLEHTSKFPA
P3_MyD88 Rank (after) [12]: 492 | P3_MyD88 Rank (before) [13]: 2837

Sequence: DYASSTWWLRELLYA
Rank (after) [3]: 434 | Rank (before) [4]: 1060

Sequence: DWGWDYLLPQLEGSAG
Rank (after) [1]: 990 | Rank (before) [2]: 2482

Sequence: NQWRNALTAAANLIGR
P3_MyD88 Rank (after) [12]: 532 | P3_MyD88 Rank (before) [13]: 3499

Sequence: LGYHRIDWEYCVGIED
Rank (after) [1]: 1020 | Rank (before) [2]: 3318

Sequence: DPQDLDWFYERLVILF
Population [11]: 0.0131%

Sequence: DTALTNSGFHTLRDND
Rank (after) [7]: 450 | Rank (before) [8]: 2091

Sequence: DPQDLDWFYERVVGLF
Rank (after) [1]: 914 | Rank (before) [2]: 2759

Sequence: DLLLSEFQSIFARRTV
P8_MyD88 Rank (after) [12]: 531 | P8_MyD88 Rank (before) [13]: 2593

Source: article PMC11714206, “Massively Parallel Screening of Toll/Interleukin‐1 Receptor (TIR)‐Derived Peptides Reveals Multiple Toll‐Like Receptors (TLRs)‐Targeting Immunomodulatory Peptides” (Advanced Science, 2024)
